The text below walks through data of paper PMC7972864, “Fucoxanthin Prevents 6-OHDA-Induced Neurotoxicity by Targeting Keap1” (Oxidative Medicine and Cellular Longevity, 2021).

Each structure is given as a SMILES string.

This experiment has as its target Keap1 (Homo sapiens, UniProt Q14145). The experiment in a line: biolayer interferometry (Octet K2), biotinylated human Keap1 on the sensor. The format is binding.

Keap1, sequence (Q14145 whole entry): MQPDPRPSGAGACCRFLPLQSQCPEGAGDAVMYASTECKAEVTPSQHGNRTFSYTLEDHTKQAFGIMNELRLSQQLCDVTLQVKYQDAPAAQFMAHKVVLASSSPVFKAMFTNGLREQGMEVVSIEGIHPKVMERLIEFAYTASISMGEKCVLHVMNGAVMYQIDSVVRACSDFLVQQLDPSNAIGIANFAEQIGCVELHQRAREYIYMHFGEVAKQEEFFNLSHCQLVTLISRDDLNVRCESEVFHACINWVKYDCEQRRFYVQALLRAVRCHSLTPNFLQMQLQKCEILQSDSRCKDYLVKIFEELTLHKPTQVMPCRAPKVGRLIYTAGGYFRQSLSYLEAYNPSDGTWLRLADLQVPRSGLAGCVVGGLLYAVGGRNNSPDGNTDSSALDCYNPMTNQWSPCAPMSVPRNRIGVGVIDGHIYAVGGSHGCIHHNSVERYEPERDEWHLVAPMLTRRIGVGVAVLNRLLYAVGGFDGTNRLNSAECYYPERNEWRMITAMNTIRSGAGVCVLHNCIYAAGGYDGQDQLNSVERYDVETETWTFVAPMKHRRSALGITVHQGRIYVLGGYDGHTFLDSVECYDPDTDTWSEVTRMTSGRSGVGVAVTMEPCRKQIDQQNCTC

For the compound `CC(=O)O[C@H]1CC(C)(C)C(=C=C/C(C)=C/C=C/C(C)=C/C=C/C=C(C)/C=C/C=C(\C)C(=O)C[C@@]23O[C@]2(C)C[C@@H](O)CC3(C)C)[C@](C)(O)C1` [FUC, fucoxanthin], the Kd amounted to 5.16E − 5.
